Data published in PMC6838683, “Discovery of Human Signaling Systems: Pairing Peptides to G Protein-Coupled Receptors” (Cell, 2019).
Like-named read-outs stand apart in the source and are kept apart here. Residues, ends and D or L forms follow the SMILES beside them.

How the values were obtained:
HA-OGR1 (GPR68) = target: T1, HA-OGR1 (GPR68) (Homo sapiens, UniProt Q15743); experiment: Ca2+ mobilization assay (Fluo-4); assay type: cell-based; conditions: mean
T1 construct: HA; expressed in transfected cells
Experimental: Peptide-dependent Ca^2+ mobilization responses were measured in HEK293 stable cell lines (HA-OGR1 (GPR68) and vector pcDNA) ([Saxena et al., 2012]) that were seeded in 96-well plates (1 × 10^5 cells/well) and cultured at 37°C with 5% CO2 to near confluence in DMEM with 10% FBS (Corning). Six hours prior to assay, medium was changed to pH 8.0 or pH 7.4 HAM’s F12 Nutrient Mixture (GIBCO) without FBS and transferred to a 37°C incubator without CO2. One hour prior to stimulation, cells were incubated in pH 8.0 or pH 7.4 HBSS with Ca^2+ and Mg^2+ (GIBCO), supplemented with 15 mM HEPES, 2 μM Fluo-4 AM (Invitrogen) and 1.5 mM probenecid ([…] to prevent Fluo-4 efflux) as described previously ([Pera et al., 2018]). Indicated peptides were pipetted using an automated system and emission signal was recorded at 525 nm after excitation at 485 nm using Flex Station III (Molecular Devices). Ca^2+ mobilization responses were determined by subtracting basal fluorescence from the net peak of agonist-induced fluorescence. Ionomycin (1 μM) was used to calculate the maximum Ca^2+ signal to normalize peptide-mediated responses.

human GPCRs = test system: human GPCRs; design: method as in Guide to Pharmacology database; conditions: max reported value, ref Guide to Pharmacology database, cited from earlier work
From the text: Supplement mmc1.xlsx, sheet "HumanGPCRLigands" | column: pKi_value; pKd_value; pEC50_value; pIC50_value

BB3 [1] = target: T2, BB3 (Homo sapiens, UniProt P32247); experiment: β-arrestin recruitment (Tango), validation; assay type: cell-based; conditions: for EC50: HTLA cells transiently transfected, overnight stimulation, luciferase, mean ± SEM of 3-4 independent experiments in triplicate, read-out: pEC50, β-arrestin recruitment (Tango), BB3 (converted)
T2 construct: host or cells: HTLA cells (HEK293-derived)
T2 sequence (P32247 1-399): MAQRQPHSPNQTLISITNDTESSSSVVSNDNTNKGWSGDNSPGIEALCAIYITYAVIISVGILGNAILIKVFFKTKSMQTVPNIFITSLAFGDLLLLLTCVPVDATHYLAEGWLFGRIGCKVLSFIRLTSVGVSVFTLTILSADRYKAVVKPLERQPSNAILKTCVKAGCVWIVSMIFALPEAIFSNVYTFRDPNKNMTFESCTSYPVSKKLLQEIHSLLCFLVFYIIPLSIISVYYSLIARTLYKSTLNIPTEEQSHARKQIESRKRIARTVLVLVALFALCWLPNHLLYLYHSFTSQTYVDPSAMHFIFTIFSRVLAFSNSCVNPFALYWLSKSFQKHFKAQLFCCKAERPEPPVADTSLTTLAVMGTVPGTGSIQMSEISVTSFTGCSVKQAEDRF
Experimental: (§1) The peptide library was additionally screened against 120 GPCR targets in parallel, including all available orphan receptors and 27 known class A peptide receptors using the Tango assay platform ([Kroeze et al., 2015]). Briefly, HTLA cells (a HEK293 cell line stably expressing a tTA-dependent luciferase reporter and a β-arrestin2-TEV fusion gene) were plated 10,000 cells/well in poly-L-lysine–coated clear-bottom white 384-well plates in DMEM supplemented with 10% FBS, 100 U/ml penicillin and 100 μg/ml streptomycin, 2 μg/ml puromycin and 100 μg/ml hygromycin B. 24 hr later, cells were transfected with Tango GPCR constructs using the calcium phosphate method ([Jordan et al., 1996]). The next day, culture medium was changed to DMEM + 1% dFBS and 10 μM peptides were added for overnight stimulation. Bright-Glo solution (Promega) was incubated for 15–20 min at room temperature, and luminescence was counted using a Trilux luminescence counter (Wallac).
(§2) For subsequent peptide validation experiments using Tango assays, HTLA cells were transiently transfected in 10 cm dishes with the receptor of interest using polyethylenimine (PEI) ([Longo et al., 2013]). After 24 hr, 25,000 cells/well were plated in clear bottom, white-walled 384-well plates. Assays were performed as described above, with luminescence measured using an EnSpire 2300 Multimode plate reader (PerkinElmer). Luminescence counts were exported into Excel and were analyzed using GraphPad Prism 7.

BB3 [2] = target: T3, BB3 (Homo sapiens, UniProt P32247); experiment: Real-time receptor internalization (TR-FRET), concentration-response; assay type: cell-based; conditions: BB3
T3 construct: hIL-2Ra signal peptide (N); expressed in transfected cells
T3 sequence (P32247 2-399 limits assumed): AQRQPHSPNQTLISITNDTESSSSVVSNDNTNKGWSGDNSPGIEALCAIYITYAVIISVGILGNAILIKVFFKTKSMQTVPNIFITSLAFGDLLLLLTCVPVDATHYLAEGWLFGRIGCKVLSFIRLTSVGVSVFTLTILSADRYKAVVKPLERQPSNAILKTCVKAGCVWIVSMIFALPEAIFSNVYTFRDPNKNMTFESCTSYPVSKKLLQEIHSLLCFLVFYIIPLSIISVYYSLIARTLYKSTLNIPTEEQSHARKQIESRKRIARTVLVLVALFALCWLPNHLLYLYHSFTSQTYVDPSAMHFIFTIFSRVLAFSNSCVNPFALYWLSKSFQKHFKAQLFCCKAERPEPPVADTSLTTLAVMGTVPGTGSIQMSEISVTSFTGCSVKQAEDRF

GPR68 = GPR68 (Homo sapiens, UniProt Q15743); experiment: as above; assay type: cell-based; design: hIL-2Ra signal peptide (N); expressed in transfected cells; conditions: GPR68; mean, SEM and n
Experimental: 48 hr prior to parallel assaying, SNAP-tagged oGPCR cells were plated (10,000 cells/well) in fibronectin-coated 384-well Epic biosensor microplates (Corning) and poly-D-lysine coated white 384-well plates (for internalization assays). SNAP- GLP-1 receptor was plated alongside orphan receptor cells as an internal assay control for internalization assays. Receptor-expression was induced with 0.1 μg/ml doxycycline.
A TR-FRET real-time internalization assay was used to examine peptide-dependent changes in orphan receptor localization as described previously ([Foster and Bräuner-Osborne, 2018]). Surface-expressed SNAP-tagged receptors were labeled with a cell-impermeable luminescent terbium cryptate (100 nM SNAP Lumi4-Tb; Cisbio, France) for 1 hr at 37°C. Cells were washed to remove excess terbium and incubated with fluorescein-O-acetic acid (100 μM; Sigma Aldrich) for 5 min at 37°C. Peptides were added as for DMR assays, and internalization responses were recorded for 60 min at 37°C using an EnVision 2104 Multimode plate reader (PerkinElmer). 100 nM GLP-1 was used as a positive control for SNAP-GLP1R internalization. Real-time internalization responses were calculated based on TR-FRET (excitation 340 nm; emission 520 nm and 615 nm), and were expressed as the ratio between donor (terbium) and acceptor (fluorescein) emission. For peptide screening analysis (both DMR and internalization assays), we calculated the area under the curve from the real-time traces. As the magnitude of the responses was variable between orphan receptor targets, particularly for the SNAP-tag based internalization assay where the signal is dependent on receptor surface expression, the AUC values were normalized to their respective plate averages and expressed as fold change. Validation experiments for receptor internalization were performed as above. Internalization data was processed in MS-Excel and area under the curve was used to generate concentration-response curves using GraphPad Prism 7.0. Data represent mean ± standard error of the mean (SEM) from at least 3 biologically independent experiments.

NPY5 = target: T4, NPY5 (Homo sapiens, UniProt Q15761); experiment: β-arrestin recruitment (Tango), known peptide receptors; assay type: cell-based; conditions: NPY5R; mean, n = 3
T4 construct: host or cells: HTLA cells (HEK293-derived)
T4 sequence (Q15761 1-445): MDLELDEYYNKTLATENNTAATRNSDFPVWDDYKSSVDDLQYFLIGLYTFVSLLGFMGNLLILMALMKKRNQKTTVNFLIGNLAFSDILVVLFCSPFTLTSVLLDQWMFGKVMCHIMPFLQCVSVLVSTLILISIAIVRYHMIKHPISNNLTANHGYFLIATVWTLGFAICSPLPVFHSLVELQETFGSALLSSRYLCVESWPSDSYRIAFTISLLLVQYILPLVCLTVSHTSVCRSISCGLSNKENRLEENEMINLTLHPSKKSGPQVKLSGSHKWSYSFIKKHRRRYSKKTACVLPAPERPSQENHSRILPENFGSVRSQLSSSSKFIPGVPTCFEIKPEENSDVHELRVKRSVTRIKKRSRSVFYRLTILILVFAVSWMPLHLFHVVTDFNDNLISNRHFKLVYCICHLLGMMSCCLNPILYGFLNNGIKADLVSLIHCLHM
Experimental: as §1, §2

[3] = test system: 120 GPCR targets, including all available orphan receptors and 27 known class A peptide receptors; experiment: Peptide library screen, β-arrestin recruitment (Tango, fold change, 10 μM); assay type: cell-based, human
Summary of the method: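 HTLA cells (HEK293 with tTA-dependent luciferase and β-arrestin2-TEV) transiently transfected with Tango GPCR constructs, then stimulated overnight with 10 μM peptides in 1% dFBS medium. Luciferase luminescence read after 15–20 min Bright-Glo incubation at room temperature.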

BB3 [4] = target: T3, BB3; experiment: IP1 accumulation (Gq/11), HTRF; assay type: cell-based
BB3 [5] = target: T3, BB3; experiment: Dynamic mass redistribution (DMR), concentration-response; assay type: cell-based
[6] = receptor grpr_human (GRPR, P30550)

T1 sequence (Q15743 whole entry): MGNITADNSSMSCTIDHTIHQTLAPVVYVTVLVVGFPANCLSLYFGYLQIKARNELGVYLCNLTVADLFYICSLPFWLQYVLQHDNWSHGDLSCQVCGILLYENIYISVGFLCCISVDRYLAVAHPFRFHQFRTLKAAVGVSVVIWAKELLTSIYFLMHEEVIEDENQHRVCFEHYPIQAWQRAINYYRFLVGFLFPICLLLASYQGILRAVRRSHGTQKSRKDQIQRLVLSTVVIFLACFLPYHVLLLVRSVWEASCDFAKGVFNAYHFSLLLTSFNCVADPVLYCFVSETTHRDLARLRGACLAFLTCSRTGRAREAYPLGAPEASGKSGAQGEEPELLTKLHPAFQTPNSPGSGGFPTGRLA
Sequence of GPR68 (Q15743 2-365 limits assumed): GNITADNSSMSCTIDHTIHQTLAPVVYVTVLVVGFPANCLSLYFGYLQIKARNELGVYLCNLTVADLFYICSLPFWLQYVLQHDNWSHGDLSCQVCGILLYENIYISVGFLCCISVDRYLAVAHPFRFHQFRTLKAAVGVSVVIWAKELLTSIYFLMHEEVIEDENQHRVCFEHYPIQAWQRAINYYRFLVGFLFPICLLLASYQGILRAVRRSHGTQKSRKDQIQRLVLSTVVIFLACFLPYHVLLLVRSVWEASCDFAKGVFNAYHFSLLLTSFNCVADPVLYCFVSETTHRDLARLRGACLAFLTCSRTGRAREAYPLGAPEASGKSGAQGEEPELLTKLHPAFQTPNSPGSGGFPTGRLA

CC[C@H](C)[C@H](NC(=O)[C@H](CCCNC(=N)N)NC(=O)[C@H](CC(=O)O)NC(=O)[C@H](CCSC)NC(=O)[C@@H]1CCCN1C(=O)[C@@H](NC(=O)CNC(=O)[C@H](Cc1ccccc1)NC(=O)[C@@H](N)CCCNC(=N)N)[C@@H](C)CC)C(=O)NCC(=O)N[C@@H](CCCNC(=N)N)C(=O)N[C@@H](CC(N)=O)C(=O)N[C@@H](CCCNC(=N)N)C(=O)N[C@@H](CC(C)C)C(=O)N[C@@H](CO)C(=O)N[C@@H](CC(N)=O)C(=O)N[C@@H](CO)C(=O)N[C@@H](CCCNC(=N)N)C(=O)NCC(=O)O [128 resynthesized] (H-RFGIPMDRIGRNRLSNSRG-OH)
Emax (HA-OGR1 (GPR68); receptor GPR68, SEM and n (3), read-out: Calcium mobilization assays Emax (% ionomycin)): 34.5%

CSCC[C@H](NC(=O)[C@H](CC(C)C)NC(=O)[C@H](Cc1c[nH]cn1)NC(=O)CNC(=O)[C@@H](NC(=O)[C@H](C)NC(=O)[C@H](Cc1c[nH]c2ccccc12)NC(=O)[C@H](Cc1c[nH]cn1)NC(=O)[C@H](CC(N)=O)NC(=O)CNC(=O)[C@H](CCCNC(=N)N)NC(=O)[C@@H]1CCCN1C(=O)[C@H](Cc1ccc(O)cc1)NC(=O)[C@H](CCSC)NC(=O)[C@H](CCCCN)NC(=O)[C@@H](NC(=O)[C@H](CC(C)C)NC(=O)[C@@H](NC(=O)[C@@H](NC(=O)CNC(=O)CNC(=O)CNC(=O)[C@H](C)NC(=O)[C@@H]1CCCN1C(=O)[C@H](CC(C)C)NC(=O)[C@@H]1CCCN1C(=O)[C@@H](N)C(C)C)[C@@H](C)O)C(C)C)[C@@H](C)O)C(C)C)C(N)=O [Peptide 167, gastrin-releasing peptide, reference compound]
pIC50_value (human GPCRs; [6]): 10 | pKi_value (human GPCRs; [6]): 8.2 | EC50 (BB3 [1]): > 10000 nM | EC50 (BB3 [2]; pEC50, internalization): > 10000 nM

CC[C@H](C)[C@H](NC(=O)[C@H](CCCNC(=N)N)NC(=O)[C@H](CC(=O)O)NC(=O)[C@H](CCSC)NC(=O)[C@@H]1CCCN1C(=O)[C@@H](NC(=O)CNC(=O)[C@H](Cc1ccccc1)NC(=O)[C@@H](N)CCCNC(=N)N)[C@@H](C)CC)C(=O)NCC(=O)N[C@@H](CCCNC(=N)N)C(=O)N[C@@H](CC(N)=O)C(=O)N[C@@H](CCCNC(=N)N)C(=O)N[C@@H](CC(C)C)C(=O)N[C@@H](CO)C(=O)N[C@@H](CC(N)=O)C(=O)N[C@@H](CO)C(=O)N[C@@H](CCCNC(=N)N)C(=O)NCC(=O)O [Osteocrin_(33-50)] (H-RFGIPMDRIGRNRLSNSRG-OH)
Emax (HA-OGR1 (GPR68); GPR68, data from resynthesized peptide, SEM and n, read-out: Emax, Ca2+ mobilization (% iono)): 34.5% | pEC50, Internalization (AUC) (GPR68): Response >1uM

SRTHRHSMEIRTPDINPAWYASRGIRPVGRF [Peptide 183]
Emax, Tango (fold over basal) (NPY5): 6.6 fold over basal | pEC50, Tango (fold over basal) (NPY5): 5.60 | Active at: (activity in b-arrestin recruitment assays) ([3]; Tango, receptor(s) at which the known library peptide was active, among its known GPCR target(s), validated pairings): PrRP | Confirmation of known target in Tango ([3]; repeat hitters of the peptide library screen, the value names the known receptor(s) confirmed in the β-arrestin recruitment (Tango) screen): PrRP

CSCC[C@H](NC(=O)[C@H](Cc1ccccc1)NC(=O)[C@H](Cc1c[nH]cn1)NC(=O)CNC(=O)[C@@H](NC(=O)[C@H](C)NC(=O)[C@H](Cc1c[nH]c2ccccc12)NC(=O)[C@H](CC(C)C)NC(=O)[C@H](CC(N)=O)NC(=O)CN)[C@@H](C)O)C(N)=O [Peptide 59, Neuromedin B, reference compound]
Emax, IP1 (BB3 [4]; BB3, mean, SEM and n): 81.0 nM | EC50 (BB3 [4]; pEC50, IP1 accumulation (Gq/11), BB3, HTRF IP-One, 30 min, 37°C, mean ± SEM of 3-4 independent experiments in triplicate, peptide 158 n = 2): 407 nM | pIC50_value (human GPCRs; [6]): 7.5 | pKi_value (human GPCRs; [6]): 8.1 | pKi_value (human GPCRs; receptor nmbr_human (NMBR, P28336)): 10.3 | Emax, Tango (fold over basal) (BB3 [1]; BB3, mean, SEM and n): 5.0 fold over basal | pEC50, Tango (fold over basal) (BB3 [1]; BB3, mean, SEM and n): 5.67 | EC50 (BB3 [1]): 2000 nM | EC50 (BB3 [5]): 37.2 nM | Emax, DMR (peak) (BB3 [5]; BB3, mean, SEM and n): 183.2 | Emax, Internalization (AUC) (BB3 [2]; mean, SEM and n): 26.4 | EC50 (BB3 [2]; mean, SEM and n, read-out: pEC50, Internalization (AUC) (converted)): 1950 nM
